The record followed here is patent US5008267A, “Pyrimidinedione compounds, method of producing the same and antiarrythmic agents containing the same” (Mitsui Toatsu Chemicals, Incorporated, priority 1988, dated 1991).

The subject of series [1] is Purkinje fiber of the right ventricular free wall (myocardial action potential). The experiment in a line: Influence on myocardial action potential duration time (APD75), isolated right ventricular free wall, microelectrode in Purkinje fiber. The settings on record: Canis lupus familiaris, 20 min, 20 minutes' incubation; for activation at 3 µg/mL: 3.0 μg/ml; for activation at 3 µg/mL / activation at 1 µg/mL / activation at 10 µg/mL: (B-A)/A×100, read-out: APD75 (%); for activation at 1 µg/mL: 1.0 μg/ml; for activation at 10 µg/mL: 10.0 μg/ml. The format is cell-based, dog.

Series [2] has as its system ventricular muscle refractory period. The series can be described thus: Influence on ventricular muscle refractory period (ERP). The format is in vivo, mongrel dog. The settings on record: Canis lupus familiaris, iv, i.v., (W-Y)/Y×100, read-out: ERP (%; extensibility of refractory period). Put shortly:
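Anesthetized (pentobarbital 30 mg/kg i.v.) mongrel dog, compound given i.v. or intraduodenally; right ventricle paced via bipolar electrodes at 400 msec, 4 msec pulses, twice threshold, sinus pacemaker abolished with alcohol. Refractory period taken as shortest inter-train interval (10 msec steps) losing response; ERP (%) = (after − before)/before × 100.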

Series [3] in a line: Toxicity test, mortality rate 24 hours after administration. Particulars: mouse, in vivo. The method, then:
Each of the compounds prepared in the above-mentioned examples was administered into a mouse (ddY strain, male). In each case, oral administration (p.o.) and intra peritoneal administration (i.p.) were separately carried out in a dose of 300 mg/kg and 250 mg/kg, respectively.
A mortality rate (number of specimens: one group=2 to 4 mice) of the mice 24 hours after the administration was calculated, and the results are set forth in Table 3.
Following the same procedure as in Toxicity Test 1, toxicity of the respective compounds prepared in the above examples in Table 5 was tested to calculate a mortality rate of mice.
Administration was made by oral administration (p.o.) in an amount of 300 mg/kg of each compound for one mouse.
Following the same procedure as in Toxicity Test 1, toxicity of the respective compounds prepared in the above examples in Table 7 was tested to calculate a mortality rate of mice.

SMILES strings stand for the structures. Structures can show the parent of a compound that is named as a salt.

`Cn1c(N2CCN(CCCSc3ccc([N+](=O)[O-])cc3)CC2)cc(=O)n(C)c1=O` [Compound 51, 1,3-dimethyl-6-{4-[3-(4-nitrophenylthio)propyl]piperazin-1-yl}-2,4(1H,3H)-pyrimidinedione oxalate]: the activation at 3 µg/mL in series [1] turned out to be 33%. Besides, in series [2], the change in vivo at 0.1 mg/kg was 12.6%, the change in vivo at 0.3 mg/kg was 12.6% and the change in vivo at 1 mg/kg was 19%. This compound also displayed a mortality at 24 h in series [3] (po, 300 mg/kg (p.o.)) of 0%.

With `Cn1c(N2CCN(CCCOc3ccc([N+](=O)[O-])cc3C(=O)c3ccccc3)CC2)cc(=O)n(C)c1=O` [Compound 80, 1,3-dimethyl-6-{4-[3-(2-benzoyl-4-nitrophenoxy)propyl]piperazin-1-yl}-2,4(1H,3H)-pyrimidinedione oxalate], in series [1], the activation at 1 µg/mL was 19%, the activation at 3 µg/mL was 30% and the activation at 10 µg/mL worked out at 34%. In addition, in series [2], the change in vivo at 0.1 mg/kg is 2.6%, the change in vivo at 0.3 mg/kg worked out at 9.7% and the change in vivo at 1 mg/kg is 21.9%. Besides, the mortality at 24 h in series [3] (po, 300 mg/kg (p.o.)) came out at 0%.

For the compound `C=CCOc1cc([N+](=O)[O-])ccc1OCCCN1CCN(c2cc(=O)n(C)c(=O)n2C)CC1` [Compound 161, 1,3-dimethyl-6-{4-[3-(2-allyloxy-4-nitrophenyloxy)propyl]piperazin-1-yl}-2,4(1H,3H)-pyrimidinedione hydrochloride], in series [1], the activation at 1 µg/mL was determined as 26% and the activation at 3 µg/mL stood at 39%. In series [2], the change in vivo at 0.1 mg/kg came to 0%, the change in vivo at 0.3 mg/kg came out at 6.7%, the change in vivo at 1 mg/kg stood at 6.7% and the change in vivo at 3 mg/kg turned out to be 6.7%. Moreover, the mortality at 24 h in series [3] (po, 300 mg/kg (p.o.)) was 0%.

`Cn1c(NCCN(CCO)CCCc2ccc([N+](=O)[O-])cc2)cc(=O)n(C)c1=O` [Compound 8] came in with an activation at 0.3 µg/mL in series [1] (0.3 μg/ml, (B-A)/A×100) of 16%. Besides, in series [1], the activation at 1 µg/mL turned out to be 22% and the activation at 3 µg/mL was found to be 38%. Moreover, in series [2], the change in vivo at 0.1 mg/kg stood at 0%, the change in vivo at 0.3 mg/kg worked out at 10.7%, the change in vivo at 1 mg/kg was found to be 21.4% and the change in vivo at 3 mg/kg stood at 14.2%. Besides, the mortality at 24 h in series [3] (ip, 250 mg/kg (i.p.)) turned out to be 0%. In addition, the mortality at 24 h in series [3] (po, 300 mg/kg (p.o.)) was 0%.

For `Cn1c(N2CCN(CCc3ccccc3[N+](=O)[O-])CC2)cc(=O)n(C)c1=O` [Compound 10, 1,3-dimethyl-6-{4-[2-(2-nitrophenyl)ethyl]piperazin-1yl}-2,4(1H,3H)-pyrimidinedione oxalate], in series [1], the activation at 3 µg/mL is 2% and the activation at 10 µg/mL came to 11%. Moreover, in series [2], the change in vivo at 0.1 mg/kg stood at 6.7%, the change in vivo at 0.3 mg/kg is 6.7%, the change in vivo at 1 mg/kg was determined as 13.3% and the change in vivo at 3 mg/kg worked out at 20%. The mortality at 24 h in series [3] (po, 300 mg/kg (p.o.)) came to 0%.

As to `Cn1c(N2CCN(CCCOc3ccc(C(=O)c4ccccc4)cc3[N+](=O)[O-])CC2)cc(=O)n(C)c1=O` [Compound 78, 1,3-dimethyl-6-{4-[3-(4-benzoyl-2-nitrophenoxy)propyl]piperazin-1-yl}-2,4(1H,3H)-pyrimidinedione oxalate], in series [1], the activation at 1 µg/mL came to 19% and the activation at 3 µg/mL was determined as 42%. In series [2], the change in vivo at 0.1 mg/kg was found to be 6.7%, the change in vivo at 0.3 mg/kg came to 13.3%, the change in vivo at 1 mg/kg turned out to be 20% and the change in vivo at 3 mg/kg stood at 26.7%. In series [3] (po, 300 mg/kg (p.o.)), this compound showed a mortality at 24 h of 0%.

In the case of `CC(=O)OCCN(CCCc1ccc([N+](=O)[O-])cc1)CCNc1cc(=O)n(C)c(=O)n1C` [Compound 167, 1,3-dimethyl-6-{2-[N-(2-acetoxyethyl)-3-(4-nitrophenyl)propylamino]ethylamino}-2,4(1H,3H)-pyrimidinedione oxalate], in series [1], the activation at 1 µg/mL was found to be 16%, the activation at 3 µg/mL was 21% and the activation at 10 µg/mL is 26%. For the same compound, in series [2], the change in vivo at 0.1 mg/kg was 8%, the change in vivo at 0.3 mg/kg was 8%, the change in vivo at 1 mg/kg is 15% and the change in vivo at 3 mg/kg stood at 15%. Moreover, the mortality at 24 h in series [3] (po, 300 mg/kg (p.o.)) was 0%.

Turning to `CCN(CCCc1ccc([N+](=O)[O-])cc1)CCNc1cc(=O)n(C)c(=O)n1C` [Compound 4, 1,3-dimethyl-6-{2-<N-ethyl-N-[3-(4-nitrophenyl)propyl]amino>ethylamino}-2,4(1H,3H)-pyrimidinedione hydrochloride], in series [1], the activation at 1 µg/mL is 11% and the activation at 3 µg/mL came out at 16%. In series [2], the change in vivo at 0.1 mg/kg worked out at 5.6%, the change in vivo at 0.3 mg/kg turned out to be 11.1%, the change in vivo at 1 mg/kg is 16.7% and the change in vivo at 3 mg/kg stood at 16.7%. For the same compound, in series [3] (ip, 250 mg/kg (i.p.)), the mortality at 24 h turned out to be 0%. For the same compound, in series [3] (po, 300 mg/kg (p.o.)), the mortality at 24 h was determined as 0%.

For `CCN(CCNCCCCc1ccc([N+](=O)[O-])cc1)c1cc(=O)n(C)c(=O)n1C` [Compound 26, 1,3-dimethyl-6-{N-ethyl-N-<2-[4-(4-nitrophenyl)butylamino]ethyl>amino}-2,4(1H,3H)-pyrimidinedione oxalate], in series [1], the activation at 1 µg/mL came to 20%, the activation at 3 µg/mL amounted to 30% and the activation at 10 µg/mL amounted to 35%. In addition, in series [2], the change in vivo at 0.1 mg/kg is 6.5%, the change in vivo at 0.3 mg/kg was determined as 6.5%, the change in vivo at 1 mg/kg was determined as 6.5% and the change in vivo at 3 mg/kg came to 6.5%. The compound further registered a mortality at 24 h in series [3] (ip, 250 mg/kg (i.p.)) of 50%. In series [3] (po, 300 mg/kg (p.o.)), this compound had a mortality at 24 h of 0%.

As to `Cn1c(N2CCN(CCCOc3ccc([N+](=O)[O-])cc3Cl)CC2)cc(=O)n(C)c1=O` [Compound 141, 1,3-dimethyl-6-{4-[3-(2-chloro-4-nitrophenyloxy)propyl]piperazin-1-yl}-2,4(1H,3H)-pyrimidinedione hydrochloride], in series [1], the activation at 1 µg/mL came out at 27% and the activation at 3 µg/mL stood at 41%. Further, in series [2], the change in vivo at 0.1 mg/kg is 0%, the change in vivo at 0.3 mg/kg was 2.1%, the change in vivo at 1 mg/kg amounted to 2.1% and the change in vivo at 3 mg/kg stood at 15%. The compound further came in with a mortality at 24 h in series [3] (po, 300 mg/kg (p.o.)) of 0%.

For the compound `CCN(CCNc1ccc([N+](=O)[O-])cc1)CCNc1cc(=O)n(C)c(=O)n1C` [Compound 71, 1,3-dimethyl-6-{2-[N-ethyl-2-(4-nitroanilino)ethylamino]ethylamino}-2,4(1H,3H)-pyrimidinedione oxalate], in series [1], the activation at 1 µg/mL turned out to be 8%, the activation at 3 µg/mL was determined as 15% and the activation at 10 µg/mL worked out at 17%. In series [2], the change in vivo at 0.1 mg/kg turned out to be 6.7%, the change in vivo at 0.3 mg/kg amounted to 7.7%, the change in vivo at 1 mg/kg came to 13.4% and the change in vivo at 3 mg/kg stood at 16.6%. In addition, the mortality at 24 h in series [3] (po, 300 mg/kg (p.o.)) was 0%.

Take `Cn1c(N2CCN(CCCCc3ccc([N+](=O)[O-])cc3)CC2)cc(=O)n(C)c1=O` [Compound 34, 1,3-dimethyl-6-{4-[4-(4-nitrophenyl)butyl]piperazine-1-yl}-2,4(1H,3H)-pyrimidinedione hydrochloride]: in series [1], the activation at 3 µg/mL worked out at 17% and the activation at 10 µg/mL was determined as 25%. In series [2], the change in vivo at 0.1 mg/kg amounted to 6%, the change in vivo at 0.3 mg/kg came to 12%, the change in vivo at 1 mg/kg came to 12% and the change in vivo at 3 mg/kg was determined as 18%. The compound further gave a mortality at 24 h in series [3] (po, 300 mg/kg (p.o.)) of 100%.

Take `COC(=O)CN(CCCNc1ccc([N+](=O)[O-])cc1)CCNc1cc(=O)n(C)c(=O)n1C` [Compound 166, 1,3-dimethyl-6-{2-[N-methoxycarbonylmethyl-3-(4-nitroanilino)propylamino]ethylamino}-2,4(1H,3H)-pyrimidinedione hydrochloride]: in series [1], the activation at 1 µg/mL is 8% and the activation at 3 µg/mL stood at 18%. Also, in series [2], the change in vivo at 0.1 mg/kg stood at 6.7%, the change in vivo at 0.3 mg/kg worked out at 6.7%, the change in vivo at 1 mg/kg stood at 6.7% and the change in vivo at 3 mg/kg was 6.7%. In series [3] (po, 300 mg/kg (p.o.)), this compound showed a mortality at 24 h of 0%.

For the compound `Cn1c(N2CCN(CCCOc3ccc([N+](=O)[O-])cc3C(=O)c3ccccc3Cl)CC2)cc(=O)n(C)c1=O` [Compound 105, 1,3-dimethyl-6-{4-<3-[2-(2-chlorobenzoyl)-4-nitrophenoxy]propyl>piperazin-1-yl}-2,4(1H,3H)-pyrimidinedione oxalate], in series [1], the activation at 1 µg/mL was determined as 11%, the activation at 3 µg/mL stood at 23% and the activation at 10 µg/mL stood at 28%. In series [2], the change in vivo at 0.1 mg/kg was determined as 0%, the change in vivo at 0.3 mg/kg was 0%, the change in vivo at 1 mg/kg was 6.3% and the change in vivo at 3 mg/kg turned out to be 6.3%. In addition, the mortality at 24 h in series [3] (po, 300 mg/kg (p.o.)) is 0%.
